Assay results from patent US8129425B2, “Small organic molecule regulators of cell proliferation” (Curis, Inc., priority 2000, dated 2012).

Columns and labels:
ptc-lacZ skin punches = assay: Skin explants from ptc-lacZ pups (X-Gal stain); assay type: cell-based, mouse; details: agonist alone, cultured 6 days
Protocol: Skin from ptc-lacZ E17.5 pups was excised with a 2 mm skin punch. Those skin punches were then cultured for 6 days in control media, or media including either agonist B or D or Hh protein, or media including both an agonist and Hh protein. The explants were then stained with X-Gal stain.

[1] = test system: diabetic neuropathy (nerve conduction, vasa nervorum, NGF); assay: Streptozotocin (STZ) diabetic rat model of diabetic neuropathy; assay type: in vivo
Protocol: Diabetes was induced in male Wistar rats (Charles River, UK or Harlan, San Diego, USA) with an intraperitoneal injection (55 mg/kg) of streptozotocin (STZ; Sigma) given after an overnight fast. The drug was freshly dissolved in sterile saline immediately before injection. Three days later, tail vein blood glucose was measured by a strip-operated reflectance photometer and any STZ-treated rats with blood glucose <15 mmol/l were removed from the study. Rats were group-housed with free access to food and water in a 12 h light/dark cycle. At the end of each study, blood samples were collected from all rats, plasma extracted and plasma glucose levels measured by spectophotometric assay using a commercial kit (Sigma, St. Louis, Mo.). […] Motor nerve conduction velocity (MNCV) was measured from latencies of the compound M waves of the electromyogram in the hindlimb, and sensory nerve conduction velocity (SNCV) was measured from H reflex latencies in the same system. […] Stimulation of the nerve was performed at the sciatic notch and Achilles tendon and evoked electromyograms were recorded from the interosseus muscles of the foot. […] NGF was measured in extracts from segments of sciatic nerve by ELISA as described by P. Fernyhough et al. Human recombinant nerve growth factor replaces deficient neurotrophic support in the diabetic rat. […]

[2] = test system: hedgehog-responsive Gli-Luc reporter-construct; assay: Gli-Luc hedgehog pathway reporter assay in [10T1/2(s12)] cells; assay type: cell-based, murine; details: Table 1
In short: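 10T1/2(s12) cells carrying a Gli-Luc reporter, switched to 0.5% FBS medium, then exposed to compound for 24 hr; luciferase read by luminescence. Screen A: 1-2 μM with Hh protein at 0.01 μg/ml (about EC30); Screen B: 5 μM without Hh. Activity expressed as percent of full Hh-induced signal.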

EC50 [2]: < 100 nM
Compound: CNC1CCC(N(Cc2ccc(OC)c(-c3ccc(C#N)cc3)c2)C(=O)c2sc3ccccc3c2Cl)CC1 (stereo not shown) [D]
X-Gal staining of skin explants (ptc-lacZ skin punches): Analogous results
blood flow to the damaged nerves (sciatic vasa nervorum) ([1]; laser Doppler perfusion imaging and BS-1 lectin fluorescent imaging): improved
levels of nerve growth factor (NGF) in the sciatic nerve ([1]; rat STZ model): increased levels of nerve growth factor (NGF)
